Test results reported in paper PMC5458211, “Mitochondrial VDAC1-based peptides: Attacking oncogenic properties in glioblastoma” (Oncotarget, 2017).
Non-standard residues stand in square brackets, D forms with d. Residues, ends and D or L forms follow the SMILES beside them.

Key:
[1] = system: GL-261MG cells; assay: Cell death by PI staining and flow cytometry, GL-261MG; type: cell-based; settings: mouse glioblastoma, 6 h at 37°C, serum-free medium, Suppl Fig 1
Description: (§1) Cells (6×10^5 /ml) were incubated in 500 μl serum-free medium with the peptide of interest for 6 h at 37°C in the presence of 5% CO2. The cells were then trypsinized, centrifuged (1500xg, 5 min), washed with PBS and analyzed for cell death using propidium iodide (PI) staining and flow cytometer (Beckton-Dickinson, San Jose, CA) and BD CellQuest Pro software. Apoptotic cell death was also analyzed by PI and annexin V-FITC staining, and by acridine orange and ethidium bromide staining and light microscopy (Olympus LX2-KSP). […]
was subsequently visualized by incubating with DAB. […]
Supplementary Figure 1: VDAC1-based peptides induce dramatic cell death of several brain tumor-derived cell […]
Ter-Antp (●) peptide in serum-free appropriate growth medium for 6 h at 37°C. Cells were harvested, washed twice with PBS and cell death was analyzed by propidium iodide (PI) staining and ﬂow cytometry. D. Summary of IC50 values (μM) for the peptides with the indicated […]
(also on this page, place not known: www.impactjournals.com/oncotarget/ Oncotarget, Materials 2017 V , Supplementary) […]

[2] = system: HK-I-GFP; assay: HK-I-GFP detachment from mitochondria by confocal microscopy, U-87MG; type: cell-based, human; settings: 7 μM, 3 h, serum-free medium
Description: (§2) Figure 2 Mode of action of VDAC1-based peptides – interacting with- and detaching HK, releasing Cyto c, decreasing ATP level and inducing apoptosis A. Purified HK-II was fluorescently labeled using the NanoTemper protein-labeling Kit BLUE. […] Then, 3-5 μl of the samples were loaded into MST-grade glass capillaries and thermophoresis was measured using a Monolith-NT115 apparatus, as described in Materials and methods available online in Supplemental information. […] The final DMSO concentration in control and peptide-treated cells was 0.07%. Fixed cells were visualized using confocal microscopy (Olympus 1×81), as described in Materials and Methods available online in Supplemental information. […] The levels of HK in the supernatants were quantified and are presented as relative units. D. D-ΔN-Ter-Antp induces mitochondrial inner membrane depolarization analyzed as described in Materials and Methods available online in Supplemental information. […] Cells then were analyzed for Δψ using TMRM. Δψ is presented as percentage of control. […] Release of Cyto c from the mitochondria was analyzed by immunostaining using anti-Cyto c antibodies and confocal microscopy (Olympus 1×81) as described in Materials and Methods available online in Supplemental information. […] Quantification of apoptosis in control and peptide's treated cells are presented bellow the images. […]

[3] = system: Cyto c release in U-87MG cells; assay: Cytochrome c release by immunofluorescence; type: cell-based, human; settings: 10 μM, 3 h, serum-free medium
Description: as §2

[4] = system: Neuro-2a cells; assay: Cell death by PI staining and flow cytometry, Neuro-2a; type: cell-based; settings: mouse neuroblastoma, 6 h at 37°C, serum-free medium, Suppl Fig 1
Description: as §1
overnight at 4°C with primary antibodies (sources and After rinsing in water, the sections were counter-stained dilutions used detailed in Table S2) and washed with hematoxylin, and mounted with mounting medium.
PBST. For IHC, endogenous peroxidase activity was Finally, the sections were observed under a microscope blocked by incubating the sections in 3% H2O2 for 15 min. (Leica DM2500) and images were collected at 20× After washing thoroughly with PBST, the sections were magnification with the same light intensity and exposure incubated with the appropriate secondary antibodies for 2 time. Non-specific control experiments were carried out h. […]
Ter-Antp (●) peptide in serum-free appropriate growth medium for 6 h at 37°C. Cells were harvested, washed twice with PBS and cell death was analyzed by propidium iodide (PI) staining and ﬂow cytometry. […]

[5] = system: U-87MG cells; assay: Apoptosis by acridine orange/ethidium bromide staining, U-87MG; type: cell-based, human; settings: 3 h, mean ± SE (n=3), DMSO control 9.8 ± 5.3
Description: Figure 2 Mode of action of VDAC1-based peptides – interacting with- and detaching HK, releasing Cyto c, decreasing ATP level and inducing apoptosis A. Purified HK-II was fluorescently labeled using the NanoTemper protein-labeling Kit BLUE. […] Then, 3-5 μl of the samples were loaded into MST-grade glass capillaries and thermophoresis was measured using a Monolith-NT115 apparatus, as described in Materials and methods available online in Supplemental information. […] The final DMSO concentration in control and peptide-treated cells was 0.07%. Fixed cells were visualized using confocal microscopy (Olympus 1×81), as described in Materials and Methods available online in Supplemental information. Arrows indicate cells with diffusion of HK-I-GFP. C. […] Anti-GAPDH antibodies were used to verify the cytosolic extracts. The levels of HK in the supernatants were quantified and are presented as relative units. D. D-ΔN-Ter-Antp induces mitochondrial inner membrane depolarization analyzed as described in Materials and Methods available online in Supplemental information. U-87MG cells were incubated for 3 h with the indicated concentrations of D-ΔN-Ter-Antp or with FCCP (1 h, 25 μM). Cells then were analyzed for Δψ using TMRM. Δψ is presented as percentage of control. Results = mean ± SE (n=3) (*** p≤0.001, ****p ≤0.0001). […] Cellular ATP levels are presented as percentage of control. Results = mean ± SE (n=2 or 3) (* p≤0.05, ** p≤0.01). […] Release of Cyto c from the mitochondria was analyzed by immunostaining using anti-Cyto c antibodies and confocal microscopy (Olympus 1×81) as described in Materials and Methods available online in Supplemental information. Arrows indicate cells showing diffusion of Cyto c. […] Arrows and arrowheads indicate cells with membrane blebbing (early apoptotic state) and late apoptotic states, respectively. Quantification of apoptosis in control and peptide's treated cells are presented bellow the images. Results = mean ± SE (n=3) (** p≤0.01, *** p≤0.001, **** p≤0.0001).
Cells (6×10^5 /ml) were incubated in 500 μl serum-free medium with the peptide of interest for 6 h at 37°C in the presence of 5% CO2. The cells were then trypsinized, centrifuged (1500xg, 5 min), washed with PBS and analyzed for cell death using propidium iodide (PI) staining and flow cytometer (Beckton-Dickinson, San Jose, CA) and BD CellQuest Pro software. Apoptotic cell death was also analyzed by PI and annexin V-FITC staining, and by acridine orange and ethidium bromide staining and light microscopy (Olympus LX2-KSP).

| SMILES | cell death, GL-261MG [1] | HK-I-GFP detachment (fluorescence distribution) [2] | Cyto c release [3] | cell death, Neuro-2a [4] | Apoptosis, % ([5]; 3 μM) [%] | Apoptosis, % ([5]; 5 μM) [%] |
| --- | --- | --- | --- | --- | --- | --- |
| CC[C@@H](C)[C@@H](NC(=O)[C@@H](CCCCN)NC(=O)[C@H](NC(=O)[C@@H](CCC(N)=O)NC(=O)[C@@H](CCCNC(=N)N)NC(=O)[C@@H](CC(C)C)NC(=O)CNC(=O)[C@@H](Cc1ccccc1)NC(=O)CNC(=O)[C@@H](Cc1ccc(O)cc1)NC(=O)CNC(=O)[C@@H](CCCCN)NC(=O)[C@H](NC(=O)[C@@H](Cc1ccccc1)NC(=O)[C@H](NC(=O)[C@@H](CC(=O)O)NC(=O)[C@H](N)CCCNC(=N)N)C(C)C)[C@H](C)O)[C@H](C)CC)C(=O)N[C@H](Cc1c[nH]c2ccccc12)C(=O)N[C@H](Cc1ccccc1)C(=O)N[C@H](CCC(N)=O)C(=O)N[C@H](CC(N)=O)C(=O)N[C@H](CCCNC(=N)N)C(=O)N[C@H](CCCNC(=N)N)C(=O)N[C@H](CCSC)C(=O)N[C@H](CCCCN)C(=O)N[C@H](Cc1c[nH]c2ccccc12)C(=O)N[C@H](CCCCN)C(=O)N[C@H](CCCCN)C(=O)O [D-ΔN-Ter-Antp] (H-[dR][dD][dV][dF][dT][dK]G[dY]G[dF]G[dL][dR][dQ][dI][dK][dI][dW][dF][dQ][dN][dR][dR][dM][dK][dW][dK][dK]-OH; N-terminus and C-terminus assumed) | effectively induce cell death | became diffuse | partial Cyto c release | effectively induce cell death | 45.4 ± 2.6 | 63.4 ± 3.8 |
| CC[C@H](C)[C@H](NC(=O)[C@H](C)NC(=O)[C@@H](N)Cc1c[nH]cn1)C(=O)N[C@@H](Cc1ccc(O)cc1)C(=O)N1CCC[C@H]1C(=O)N[C@@H](CCCNC(=N)N)C(=O)N[C@@H](Cc1c[nH]cn1)C(=O)N[C@@H](CO)C(=O)N[C@@H](Cc1c[nH]c2ccccc12)C(=O)N[C@H](C(=O)N[C@@H](Cc1c[nH]c2ccccc12)C(=O)N[C@@H](CCC(=O)O)C(=O)N[C@H](CCCCN)C(=O)N[C@H](CCCCN)C(=O)N[C@H](CC(C)C)C(=O)N[C@H](CCC(=O)O)C(=O)N[C@@H](C(=O)N[C@H](C)C(=O)N[C@@H](C(=O)N[C@H](CC(N)=O)C(=O)N[C@H](CC(C)C)C(=O)N[C@H](C)C(=O)N[C@H](Cc1c[nH]c2ccccc12)C(=O)N[C@@H](C(=O)N[C@H](C)C(=O)NCC(=O)N[C@H](CC(N)=O)C(=O)N[C@H](CO)C(=O)N[C@H](CC(N)=O)C(=O)N[C@@H](CCCCN)C(=O)N[C@@H](Cc1c[nH]c2ccccc12)C(=O)N[C@H](C(=O)N[C@@H](Cc1c[nH]c2ccccc12)C(=O)N[C@@H](CCCCN)C(=O)O)[C@@H](C)O)[C@H](C)O)C(C)C)[C@H](C)O)[C@@H](C)O [Tf-D-LP4] | effectively induce cell death | became diffuse | partial Cyto c release | effectively induce cell death | 55.8 ± 1.0 | 73.9 ± 5.7 |
